# Counter-ions that a name gives are not always drawn.
# Key:
# [1] = tested on: isolated auricle of a rabbit; experiment: Peripheral vasomotoricity, isolated and perfused auricle of a rabbit; settings: for activation at 0.0001 mg / activation at 0.001 mg / activation at 0.01 mg / activation at 0.1 mg: Oryctolagus cuniculus, read-out: Maximum variations in the flow rate; for activation at 0.0001 mg: dose 0.1 μg.; for activation at 0.001 mg: dose 1 μg.; for activation at 0.01 mg: dose 10 μg.; for activation at 0.1 mg: dose 100 μg.
# Procedure: The flow rate of the liquid issuing from the veins is recorded by electronic contact on a polygraph. The products to be studied are injected at increasing doses into the perfusion tube and their actions are compared to that of isoxsuprine used as the reference substance.
# The results, collected in Table No. III, are expressed in the maximum percentage increase of the flow rate at the various doses used.
# [2] = Acute toxicity in mice (LD 50); assay type: in vivo; settings: mouse, in vivo, mice, 15 days observation
# Procedure: (§1) The study is carried out on batches of 5 Swiss female mice of the NMRI Han. strain. The products are administered either intravenously (into the caudal vein) in solution in a 9 g..permill. sodium chloride solution, or orally (probang) in suspension in a 10% solution of gum arabic.
# (§2) The animals are observed for the 15 days following the administration of the products.
# (§3) The LD 50 values are calculated by the method of Karber and Behrens (Arch. Exp. Pathol. Pharm. 177, 1935, page 379).
# [3] = tested on: isolated duodenum of a rat; experiment: Musculotropic spasmolytic action on the isolated duodenum of a rat (barium chloride contraction); settings: in words
# Procedure: The experiments are carried out in accordance with the method of Magnus R. (Arch. ges. Physiol. 1904, 102, 123) on the isolated duodenum of a rat, surviving in oxygenated Tyrode liquid and kept at 38° C. The tonus and the pendular movements of the duodenum were recorded by means of a strain gauge on an electronic polygraph.
# The inherent action of the products, and the antagonism exerted against the musculotropic contraction-inducing action of barium chloride was examined. Papaverine is used as the reference substance.
# [4] = Cardiovascular action in dogs; assay type: in vivo, male Beagle dogs
# Procedure: Male Beagle dogs weighing 9 to 12 kg. were anaesthetised by intrasaphenous injection of a 2% solution of chloralose in physiological solution, at a dose of 100 mg./kg.
# The anaesthesia is maintained by slow perfusion of 5% pentobarbital (1.2 ml./hour).
# The animals are tracheotomised and placed under assisted respiration by means of a Bird respirator. Their oxygenation and their acid-base equilibrium are controlled by determination of the pH, the pCO2 and the pO2 on blood samples taken from a collateral of the brachial artery (pH/gas analyser for blood, IL model 213/227).
# The different parameters are recorded on a polygraph.
# mice = experiment: Acute toxicity in mice (LD 50); assay type: in vivo; settings: intravenous; in words
# Procedure: as §1, §2, §3
# [5] = tested on: hypertensive effects of electrical stimulation, adrenaline and noradrenaline; experiment: α-Sympatholytic effects in amyeliated rats; assay type: in vivo; settings: for % variation of the hypertensive effects obtained with adrenaline: adrenaline 1.25 to 2.5 μg./kg.; for % variation of the hypertensive effects obtained with noradrenaline: noradrenaline 1.25 to 2.5 μg./kg.
# Source text: The α-sympatholytic effects of LJ 1052 and LJ 1053 are compared with those of isoxsuprine in amyeliated rats which have been prepared by a method derived from those of Shipley and Tilden (Proc. soc. Exp. Biol. Med. 1947, 64, 453-455) and of Gillespie and Muir (Br. J. Pharmac. Chemother. 1967, 30, 78-87).
# The effects on the blood pressure of electrical stimulation of the thoracolumbar sympathic nerve (rectangular signals = voltage 20 to 40 volts; width 2 m. sec; frequency 10 secs.; duration 5 to 10 secs.) and of injections of adrenaline (1.25 to 2.5 μg./kg.) and of noradrenaline (1.25 to 2.5 μg./kg.) are determined before and after injection of the products tested.
# [6] = dose 50 g./kg. (so in the source)
# [7] = dose 100 g./kg. (so in the source)
# [8] = dose 500 g./kg. (so in the source)
# [9] = 0.04 mg./kg. i.v. (1/1,000 LD 50)
# [10] = 0.04 mg./kg. i.v. (1/1,000 LD 50), first or only phase
compound,measurement,setting,value
"CCCCCNCC1COc2ccccc2C1=O (stereo not drawn) [LJ 1046, 3-(n-Pentylaminomethyl)-4-chromanone hydrochloride]",activation at 0.0001 mg,[1],38%
same,activation at 0.001 mg,[1],29%
same,activation at 0.01 mg,[1],61%
same,activation at 0.1 mg,[1],77%
same,maximum increases in the flow rate,[1]; all doses (0.1 to 100 μg.),≤ 100%
same,LD50 at 360 h,[2]; intravenous administration,18 mg/kg
same,LD50 at 360 h,[2]; oral administration,237 mg/kg
same,musculotropic spasmolytic action compared with papaverine / within the series,[3],the most active
same,"FF (mean flow rate of the femoral artery), maximum per cent variation",[4]; 0.36 mg./kg. i.v. (1/50 LD 50),+100%
same,"FF, duration of action",[4]; 0.36 mg./kg. i.v. (1/50 LD 50),> 20 min
same,"Hb (heart beat), maximum per cent variation",[4]; 0.36 mg./kg. i.v. (1/50 LD 50),+30%
same,"Hb, duration of action",[4]; 0.36 mg./kg. i.v. (1/50 LD 50),> 20 min
same,"LVP (left ventricular pressure), maximum per cent variation",[4]; 0.36 mg./kg. i.v. (1/50 LD 50),-20%
same,"LVP, duration of action",[4]; 0.36 mg./kg. i.v. (1/50 LD 50),> 20 min
same,"Mean AP, duration of action",[4]; 0.36 mg./kg. i.v. (1/50 LD 50),> 20 min
same,"Mean AP, maximum per cent variation",[4]; 0.36 mg./kg. i.v. (1/50 LD 50),-36%
same,"dLVP/dt, duration of action",[4]; 0.36 mg./kg. i.v. (1/50 LD 50),> 20 min
same,"dLVP/dt, maximum per cent variation",[4]; 0.36 mg./kg. i.v. (1/50 LD 50),+43%
"CCCCNCC1COc2ccccc2C1=O (stereo not drawn) [LJ 1049, 3-(n-Butylaminomethyl)-4-chromanone hydrochloride]",activation at 0.0001 mg,[1],36%
same,activation at 0.001 mg,[1],36%
same,activation at 0.01 mg,[1],115%
same,activation at 0.1 mg,[1],138%
same,duration of the effects / of the action,[1]; at the highest doses,≥ 30 min
same,peripheral vasodilatory action,[1]; in words,great
same,LD50 at 360 h,[2]; intravenous administration,24 mg/kg
same,LD50 at 360 h,[2]; oral administration,262 mg/kg
same,"FF (mean flow rate of the femoral artery), maximum per cent variation",[4]; 0.5 mg./kg. i.v. (1/50 LD 50),+34%
same,"FF, duration of action",[4]; 0.5 mg./kg. i.v. (1/50 LD 50),2 min
same,"Hb (heart beat), maximum per cent variation",[4]; 0.5 mg./kg. i.v. (1/50 LD 50),+21%
same,"Hb, duration of action",[4]; 0.5 mg./kg. i.v. (1/50 LD 50),40 min
same,"LVP (left ventricular pressure), maximum per cent variation",[4]; 0.5 mg./kg. i.v. (1/50 LD 50),-19%
same,"LVP, duration of action",[4]; 0.5 mg./kg. i.v. (1/50 LD 50),50 min
same,"Mean AP, duration of action",[4]; 0.5 mg./kg. i.v. (1/50 LD 50),10 min
same,"Mean AP, maximum per cent variation",[4]; 0.5 mg./kg. i.v. (1/50 LD 50),-15%
same,"dLVP/dt, maximum per cent variation","[4]; 0.5 mg./kg. i.v. (1/50 LD 50), first phase",-10%
same,"dLVP/dt, duration of action, second phase (""then"")",[4]; 0.5 mg./kg. i.v. (1/50 LD 50),10 min
same,"dLVP/dt, maximum per cent variation, second phase (""then"")",[4]; 0.5 mg./kg. i.v. (1/50 LD 50),+20%
"CC(COc1ccccc1)NC(C)C(O)c1ccc(O)cc1 (stereo not drawn) [Isoxsuprine, reference compound]",activation at 0.0001 mg,[1],38%
same,activation at 0.001 mg,[1],61%
same,activation at 0.01 mg,[1],117%
same,activation at 0.1 mg,[1],175%
same,intravenous LD 50 in mice (comparison of three products),mice,practically identical
same,% variation of the hypertensive effects obtained with electrical stimulation,[5]; [6],-27%
same,% variation of the hypertensive effects obtained with adrenaline,[5]; [6],-69%
same,% variation of the hypertensive effects obtained with noradrenaline,[5]; [6],-36%
same,% variation of the hypertensive effects obtained with electrical stimulation,[5]; [7],-25%
same,% variation of the hypertensive effects obtained with adrenaline,[5]; [7],-75%
same,% variation of the hypertensive effects obtained with noradrenaline,[5]; [7],-44%
same,% variation of the hypertensive effects obtained with electrical stimulation,[5]; [8],-66%
same,% variation of the hypertensive effects obtained with adrenaline,[5]; [8],-100%
same,% variation of the hypertensive effects obtained with noradrenaline,[5]; [8],-67%
same,"Diastolic AP, duration of action",[4]; [9],20 min
same,"Diastolic AP, maximum per cent variation",[4]; [9],-62%
same,"FF (mean flow rate of the femoral artery), maximum per cent variation",[4]; [9],+63%
same,"FF, duration of action",[4]; [9],30 min
same,"Hb (heart beat), maximum per cent variation",[4]; [9],+13%
same,"Hb, duration of action",[4]; [9],25 min
same,"LVP, duration of action",[4]; [9],5 min
same,"Mean AP, duration of action",[4]; [9],20 min
same,"Mean AP, maximum per cent variation",[4]; [9],-50%
same,"Systolic AP, duration of action",[4]; [9],10 min
same,"Systolic AP, maximum per cent variation",[4]; [9],+13%
same,"LVP (left ventricular pressure), maximum per cent variation",[4]; [10],-22%
same,"dLVP/dt, maximum per cent variation",[4]; [10],-18%
same,"dLVP/dt, duration of action, second phase (""then"")",[4]; [9],5 min
same,"dLVP/dt, maximum per cent variation, second phase (""then"")",[4]; [9],+12%

# From patent publication US4065575A, “3-Aminomethyl derivatives of 4-chromanone” (Joullie International, priority 1975, dated 1977)
